Here are results for 23 compounds from patent US12461089B2, “Olfactory receptor involved in the perception of musk fragrance and the use thereof” (ChemoSensoryX Biosciences SA, priority 2017, dated 2025).

Read-outs that look alike come from different tables or passages of the source.

What all share (type): cell-based
For test [1], the target named is T1, OR11A1 (Homo sapiens, UniProt Q9GZK7).
T1 construct: expressed in transfected cells; host or cells: HEK293T-RTP1A1/RTP2
T1 sequence (Q9GZK7 1-315): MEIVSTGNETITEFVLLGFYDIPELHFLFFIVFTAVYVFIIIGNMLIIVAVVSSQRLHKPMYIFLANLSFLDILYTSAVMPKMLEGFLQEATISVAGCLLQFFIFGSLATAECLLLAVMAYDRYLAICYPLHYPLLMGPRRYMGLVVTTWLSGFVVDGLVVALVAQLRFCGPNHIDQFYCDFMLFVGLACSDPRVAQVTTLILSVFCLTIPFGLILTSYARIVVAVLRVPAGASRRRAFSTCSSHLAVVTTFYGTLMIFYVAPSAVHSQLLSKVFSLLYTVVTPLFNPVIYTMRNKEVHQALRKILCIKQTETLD
Briefly: Luciferase reporter concentration-response analysis on OR11A1. The procedure:
(§1) HEK293T-RTP1A1/RTP2 cells were maintained in minimal essential medium (EMEM, Lonza) containing 10% fetal bovine serum (M10). These cells were generated by transfecting HEK293T with an expression vector containing the sequences of the chaperone proteins RTP1A1 and RTP2 and a resistance gene to puromycin, using Lipofectamine 2000.
(§2) Odorant molecules were diluted at a concentration of 1 mole/liter (M) into dimethyl sulfoxide (DMSO) to generate stock solutions.
(§3) For concentration-response analysis, serial dilutions of the tested molecules were prepared from stock solutions in EMEM plated into 96-well plates.
(§4) For the initial deorphanisation screening and dose-response analysis, a Luciferase-based gene reporter assay (Promega, Leiden, The Nederlands) was used. Briefly, cells were platted on Poly-D-lysine-coated 96-well and transfected with a plasmid containing the CRE-luciferase and a plasmid containing the olfactory receptor. Sixteen hours after transfection, the culture medium was replaced by serum-free EMEM containing the tested compounds at a determined concentration. After four hours of incubation at 37° C. degree, cells were lysed and processed for luminescence measurement. Luminescene emission was recorded. Results were expressed as luciferase activity (Relative […] Unit (RLU)) or as percentage of the response induced by 10 μM of the adenylate cyclase activator Forskolin. An empty plasmid is used as negative control.
(§5) 35 musk compounds from the four structurally different chemical groups previously described were tested in concentration-response analyses (Table 2). In each experiment, an empty vector was used as negative control (pEFIBRHO). […] Full results including the calculated EC50 are given in Table 2; “non active” represent negative experiments, no activation after testing.
These compounds were tested in concentration-response analysis in luciferase assays, as described previously. In each experiment, an empty vector was used as negative control (pEFIBRHO).
(In general: In a reporter assay the amount or activity of a reporter protein is the signal.)

Test [2] has as its target T2, OR5A2_variant 1 (Homo sapiens, UniProt Q8NGI9).
T2 construct: expressed in transfected cells; host or cells: HEK293T-RTP1A1/RTP2
T2 sequence (Q8NGI9 1-324): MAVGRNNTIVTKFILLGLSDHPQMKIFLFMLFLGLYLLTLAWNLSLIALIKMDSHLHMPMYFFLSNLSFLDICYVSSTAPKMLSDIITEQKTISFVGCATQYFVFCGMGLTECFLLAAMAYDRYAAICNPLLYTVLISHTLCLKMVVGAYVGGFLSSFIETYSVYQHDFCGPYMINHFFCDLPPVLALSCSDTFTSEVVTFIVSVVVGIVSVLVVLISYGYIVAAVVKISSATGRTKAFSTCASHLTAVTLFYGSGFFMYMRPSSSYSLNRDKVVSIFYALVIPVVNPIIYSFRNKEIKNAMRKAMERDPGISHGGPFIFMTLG
The experiment in a line: Luciferase reporter concentration-response analysis on OR5A2_variant 1. The procedure: as §1, §2, §3, §4, §5

Test [3] concerns the target T3, OR5AN1 (Homo sapiens, UniProt Q8NGI8, E89G).
T3 construct: expressed in transfected cells; host or cells: HEK293T-RTP1A1/RTP2
T3 sequence (Q8NGI8 1-311 E89G): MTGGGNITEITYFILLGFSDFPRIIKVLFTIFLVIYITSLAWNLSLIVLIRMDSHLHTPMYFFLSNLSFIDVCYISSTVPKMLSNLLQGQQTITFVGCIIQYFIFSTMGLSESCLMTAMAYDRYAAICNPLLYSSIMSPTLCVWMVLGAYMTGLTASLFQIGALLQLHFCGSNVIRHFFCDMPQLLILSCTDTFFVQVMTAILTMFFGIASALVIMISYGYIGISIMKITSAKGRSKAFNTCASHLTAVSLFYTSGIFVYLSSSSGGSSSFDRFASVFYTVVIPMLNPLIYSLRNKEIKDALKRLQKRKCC
Briefly: Luciferase reporter concentration-response analysis on OR5AN1. The conditions noted are these: concentration-response analysis, luciferase reporter, values given as negative (log) numbers, Non Active = no activation after testing; for EC50: read-out: calculated EC50, OR5AN1 (converted). The protocol:
HEK293T-RTP1A1/RTP2 cells were maintained in minimal essential medium (EMEM, Lonza) containing 10% fetal bovine serum (M10). These cells were generated by transfecting HEK293T with an expression vector containing the sequences of the chaperone proteins RTP1A1 and RTP2 and a resistance gene to puromycin, using Lipofectamine 2000. The recombinant cell population, used in these experiments, was selected by adding 10 μg/ml of puromycin into the culture medium and subsequently subcloned (WO 2014/191047 A1).
as §2, §3, §4
In these analyses we also included ORs previously described as musk-specific receptors OR5AN1 (SEQ ID n° 7) (WO 2015/020158 A1, Shirasu et al. 2014 Neuron 81, 165-78, Sato-Akuhara N et al. 2016 J Neurosci. 36(16), 4482-91) and OR11A1 (SEQ ID n° 8) (WO 2016/201152 A1). […] Therefore, OR5A1 was included in the analyses. 35 musk compounds from the four structurally different chemical groups previously described were tested in concentration-response analyses (Table 2). In each experiment, an empty vector was used as negative control (pEFIBRHO). […] Full results including the calculated EC50 are given in Table 2; “non active” represent negative experiments, no activation after testing. […]

Setting [4] is: concentration-response analysis, luciferase reporter, values given as negative (log) numbers, read-out: calculated EC50, OR5A2 (converted).
The mark [5] stands for this setting: concentration-response analysis, luciferase reporter, values given as negative (log) numbers, Non Active = no activation after testing, read-out: calculated EC50, OR11A1 (converted).
[6] abbreviates: concentration-response analysis, luciferase reporter, values given as negative (log) numbers.

With `CC1CC(C)(C)c2ccc(C=O)cc2C1(C)C` (stereo not drawn) [Fixal], the EC50 in test [1] was 8.91 µM; in test [2], 10.2 µM.
Consider `CC1COCc2cc3c(cc21)C(C)(C)C(C)C3(C)C` (stereo not drawn) [Galaxolide ®], for which, in test [2] (setting [4]), the concentration giving a half-maximal response (EC50) is 1.05 µM.
Regarding `O=C1CCCCCC/C=C\CCCCCCC1` [Globanone (Animusk)], the EC50 in test [3] is 2.24 µM; in test [2] (setting [4]) it was 3.98 µM.
Consider `O=C1CCCCCCCCC/C=C/CCCO1` [Habanolide], for which the EC50 was 66.1 µM in test [3] and 16.2 µM in test [2].
In the case of `Cc1c([N+](=O)[O-])cc2c(c1[N+](=O)[O-])C(C)(C)CC2(C)C` [Moskene, 1,1,3,3,5-pentamethyl-4,6-dinitro-2H-indene], in test [2] (setting [4]), the EC50 was 1.86 µM.
As for `c1ncc2c(n1)CCCCCCCCCC2` [Musk 77], the concentration for a half-maximal effect (EC50) in test [1] (setting [5]) was 9.12 µM; in test [2] (setting [4]) it was 5.13 µM.
On to `COc1c(C(C)(C)C)cc([N+](=O)[O-])c(C)c1[N+](=O)[O-]` [Musk Ambrette, 2,6-dinitro-3-methoxy-4-tert-butyltoluene], for which the EC50 in test [3] was 692 µM; in test [2] (setting [4]), 8.71 µM.
The like results for `O=C1CCCCCCCCCCC(=O)OCCO1` [Musk MC4] were, in that order, 75.9 µM and 38 µM.
The like results for `O=C1CCCCCCCCOCCCCCCO1` [Oxalide T] were, in that order, 32.4 µM and 8.32 µM.
As for `CC(=O)c1cc2c(cc1C)C(C)(C)C(C)C2(C)C` (stereo not drawn) [Phantolide], the EC50 in test [1] (setting [5]) was 7.59 µM; in test [2] (setting [4]), 4.57 µM.
In test [2], `C/C(=C\C(C)C)C(C)OC(C)(C)COC(=O)C1CC1` (stereo not drawn) [Sylkolide] showed an EC50 of 17.8 µM.
For the compound `O=C1CCCCCCCCCCCCCCO1` [Thibetolide = Exaltolide], the figures for the EC50 in test [3] and in test [2] (setting [4]) were 87.1 µM and 43.7 µM, respectively.
As to `CC(=O)c1cc2c(cc1C)C(C)(C)C(C)CC2(C)C` (stereo not drawn) [Tonalide ®], the figures for the EC50 in test [1] (setting [5]) and in test [2] (setting [4]) were 18.2 µM and 0.759 µM, respectively.
`CC(=O)c1cc(C(C)(C)C)cc2c1CCC2(C)C` [crysolide]: the EC50 in test [3] is 120 µM; in test [2] (setting [4]), 22.4 µM.
In the case of `C=C(C)C1CCC(C)=C1CC(C)(C)COC(=O)CC` (stereo not drawn) [cyclopentenyl propionate musk], a half-maximal response in test [2] (EC50) required 28.2 µM.
On to `CC1CC(C)(C)C2=C(CC3(C)OC3C2)C1(C)C` (stereo not drawn) [malaxone], for which the values for the EC50 in test [3] and in test [2] were 309 µM and 29.5 µM, respectively.
The like results for `CC1C/C=C\CCCCCCCCC(=O)OCC1` (stereo not drawn) [nirvanolide] were, in that order, 417 µM and 19.5 µM.
On to `CC(=O)c1cc2c(cc1C)C(C)(C)C(C)C2C(C)C` (stereo not drawn) [traseolide], for which the EC50 in test [1] (setting [5]) was 7.08 µM; in test [2] (setting [4]), 1.95 µM.
With Cyclopenta- decanone, in test [3], the “calculated EC50, OR5AN1” value is −4.95.
Turning to Helvetolide, the “calculated EC50, OR5A2” value in test [2] (setting [6]) is listed as −3.86.
The same measure, in the same setting: the value for Isoambrettolide was −4.72.
With muscone, the “calculated EC50, OR5AN1” value in test [3] is −5.37. The “calculated EC50, OR5A2” value in test [2] (setting [6]) was −5.25.
The like results for ω-6-Hexadecen- lactone were, in that order, −4.68 and −5.17.

Usually EC50 stands for the concentration giving half of the maximal effect.
